Residues, ends and D or L forms follow the SMILES beside them.
How the values were obtained:
[1] = tested on: Adult male C57/B16J mice; experiment: Drinking in the Dark (DID) mouse model of binge drinking behavior; assay type: in vivo
Description: To measure binge drinking behavior, experiments were conducted that used the Drinking in the Dark (DID) model as previously published (see, Thiele T E, Crabbe J C, Boehm S L, 2nd (2014): “Drinking in the Dark” (DID): a simple mouse model of binge-like alcohol intake. Curr Protoc Neurosci. 68: 9 49 41-49 49 12). Adult male C57/B16J mice on reverse light-dark cycle had water replaced with alcohol three hours into the dark cycle. On days 1-3 of each week (Mon-Wed), mice received 20% alcohol for 2 hrs and on day 4 (Thur) received for 4 hours.
Mice were treated with Rapastinel at dose of 30 mg/kg or saline via intraperitoneal injection (i.p.) 30 minutes prior to alcohol exposure on days 1-4 of cycle either during first cycle of DID or after first undergoing DID for 5 weeks prior to treatment on week 6 (see, FIG. 1).

[2] = tested on: animal models; conditions: unlike ketamine, Moskal et al. 2017; cited from earlier work
[3] = tested on: preclinical rodent models; conditions: previously shown; cited from earlier work

Structure (SMILES): C[C@@H](O)[C@H](N)C(=O)N1CCC[C@H]1C(=O)N1CCC[C@H]1C(=O)N[C@H](C(N)=O)[C@@H](C)O [Rapastinel, L-threonyl-L-prolyl-L-prolyl-L-threoninamide] (H-TPPT-NH2)
- alcohol consumption (daily and total) compared to saline control ([1]; alcohol naïve mice, 1 cycle of DID, daily i.p. injection of 30 mg/kg prior to presentation of alcohol): no effect
- Total average weekly alcohol consumption, week 6 with treatment in comparison to weeks 1-5 ([1]; mice after 5 weeks of DID, 30 mg/kg i.p. 30 minutes prior to alcohol on days 1-4 of week 6, with and without removal of outliers (>90%)): reduced alcohol consumption
- negative side effects during treatment [2]: has not been shown to produce any negative side effects
- cravings for opiates [3]: effective in reducing cravings for opiates

— patent publication US20240382556A1, “METHODS AND COMPOSITIONS FOR THE TREATMENT OF ALCOHOL DEPENDENCE” (Duke University, priority 2023, published 2024)
